Measurements from ChEMBL document CHEMBL4330138, “Discovery of new indole-based acylsulfonamide Nav1.7 inhibitors” (Bioorg Med Chem Lett, 2019).

Key:
[1] = target: Sodium channel protein type 5 subunit alpha (Homo sapiens, UniProt Q14524); experiment: Inhibition of human Nav1.5 at -50 mV holding potential by cell-based IonWorks barracuda automated electrophysiology method; type: ADME
[2] = target: T1, Sodium channel protein type 9 subunit alpha (Homo sapiens, UniProt Q15858); experiment: Inhibition of human Nav1.7 at -60 mV holding potential by cell-based IonWorks barracuda automated electrophysiology method
Target sequence in this assay (Q15858 whole entry): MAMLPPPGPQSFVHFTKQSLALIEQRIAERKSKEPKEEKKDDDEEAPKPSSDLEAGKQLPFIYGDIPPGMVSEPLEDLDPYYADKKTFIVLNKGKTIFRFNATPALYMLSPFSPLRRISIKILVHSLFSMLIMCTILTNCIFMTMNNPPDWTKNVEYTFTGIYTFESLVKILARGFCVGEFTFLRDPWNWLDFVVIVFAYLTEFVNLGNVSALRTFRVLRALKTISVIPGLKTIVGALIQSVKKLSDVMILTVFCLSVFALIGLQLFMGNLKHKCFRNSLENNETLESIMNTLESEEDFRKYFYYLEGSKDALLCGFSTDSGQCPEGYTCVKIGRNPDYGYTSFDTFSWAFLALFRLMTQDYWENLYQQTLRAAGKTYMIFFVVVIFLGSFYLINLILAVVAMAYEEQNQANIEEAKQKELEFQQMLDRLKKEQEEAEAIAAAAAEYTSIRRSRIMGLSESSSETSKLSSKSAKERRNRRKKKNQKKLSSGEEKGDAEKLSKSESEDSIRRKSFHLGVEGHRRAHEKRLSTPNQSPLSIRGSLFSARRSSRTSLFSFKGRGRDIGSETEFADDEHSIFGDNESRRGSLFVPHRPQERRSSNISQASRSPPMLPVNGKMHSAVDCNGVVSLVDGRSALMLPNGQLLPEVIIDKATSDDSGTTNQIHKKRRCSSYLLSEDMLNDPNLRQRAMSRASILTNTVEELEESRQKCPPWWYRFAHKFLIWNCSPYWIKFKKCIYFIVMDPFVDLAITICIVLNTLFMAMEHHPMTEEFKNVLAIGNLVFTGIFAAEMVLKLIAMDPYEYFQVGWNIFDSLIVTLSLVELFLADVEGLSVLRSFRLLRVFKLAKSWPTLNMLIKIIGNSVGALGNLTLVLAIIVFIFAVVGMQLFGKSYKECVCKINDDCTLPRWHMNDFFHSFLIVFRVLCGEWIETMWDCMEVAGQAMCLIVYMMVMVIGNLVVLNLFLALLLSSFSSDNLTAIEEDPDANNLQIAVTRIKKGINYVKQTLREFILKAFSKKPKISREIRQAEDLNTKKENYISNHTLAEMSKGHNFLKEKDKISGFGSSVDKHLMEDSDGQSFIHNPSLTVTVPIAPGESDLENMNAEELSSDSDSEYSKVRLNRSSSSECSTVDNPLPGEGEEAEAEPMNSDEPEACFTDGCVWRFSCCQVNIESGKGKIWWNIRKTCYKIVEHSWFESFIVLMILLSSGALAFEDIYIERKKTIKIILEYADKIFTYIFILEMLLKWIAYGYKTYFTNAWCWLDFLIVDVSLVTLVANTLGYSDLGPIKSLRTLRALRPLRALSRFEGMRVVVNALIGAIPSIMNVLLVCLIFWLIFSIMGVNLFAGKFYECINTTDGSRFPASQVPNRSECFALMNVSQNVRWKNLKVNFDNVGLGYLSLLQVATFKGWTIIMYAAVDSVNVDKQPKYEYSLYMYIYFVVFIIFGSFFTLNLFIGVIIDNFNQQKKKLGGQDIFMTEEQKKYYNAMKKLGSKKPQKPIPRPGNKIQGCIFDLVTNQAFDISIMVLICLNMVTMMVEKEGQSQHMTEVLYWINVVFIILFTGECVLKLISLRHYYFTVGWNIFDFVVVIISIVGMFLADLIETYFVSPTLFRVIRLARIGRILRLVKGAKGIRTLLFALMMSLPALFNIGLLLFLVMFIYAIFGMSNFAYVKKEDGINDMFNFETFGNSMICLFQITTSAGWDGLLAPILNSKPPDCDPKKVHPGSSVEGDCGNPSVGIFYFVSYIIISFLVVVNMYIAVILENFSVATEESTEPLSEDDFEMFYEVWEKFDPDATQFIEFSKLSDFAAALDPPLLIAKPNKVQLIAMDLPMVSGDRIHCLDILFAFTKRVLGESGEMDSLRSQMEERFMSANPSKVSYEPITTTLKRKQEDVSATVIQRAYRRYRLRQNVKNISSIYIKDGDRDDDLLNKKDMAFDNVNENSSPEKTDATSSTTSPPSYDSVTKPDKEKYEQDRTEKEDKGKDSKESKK

Homo sapiens = organism: Homo sapiens; experiment: Selectivity ratio of IC50 for human Nav1.5 to IC50 for human Nav1.7
[3] = target: T1, Sodium channel protein type 9 subunit alpha; experiment: Inhibition of human Nav1.7 at -60 mV holding potential by cell-based manual patch clamp electrophysiology method
Target sequence in this assay (Q15858 whole entry): as above

[4] = target: T1, Sodium channel protein type 9 subunit alpha; experiment: Ratio of IC50 for human Nav1.7 at -60 mV holding potential by cell-based manual patch clamp electrophysiology method to IC50 for human Nav1.7 at -60 mV holding potential by cell-based IonWorks barracuda automated electrophysiology method
Target sequence in this assay (Q15858 whole entry, looked up): as the sequence (Q15858 whole entry) above

[5] = target: T1, Sodium channel protein type 9 subunit alpha; experiment: Ratio of IC50 for human Nav1.7 at -60 mV holding potential by cell-based IonWorks barracuda automated electrophysiology method to IC50 for human Nav1.7 at -60 mV holding potential by cell-based manual patch clamp electrophysiology method
Target sequence in this assay (Q15858 whole entry, looked up): as the sequence (Q15858 whole entry) above

[6] = Permeability across apical to basolateral side in human Caco2 cells; type: ADME, cell-based; details: Caco-2, read-out: permeability
[7] = Permeability across basolateral to apical side in human Caco2 cells; type: ADME, cell-based; details: Caco-2, read-out: permeability
[8] = target: CYP450 (Cytochrome P450 family, isoform not stated) (Homo sapiens, UniProt P04798+P05177+P05181+P08684+P10632+P10635+P11509+P11712+P13584+P20813+P20815+P20853+P24462+P24903+P33260+P33261+P51589+P78329+P98187+Q02928+Q08477+Q16678+Q16696+Q5TCH4+Q6VVX0+Q7Z449+Q8TAV3+Q96SQ9+Q9HB55); experiment: Inhibition of human CYP450; type: ADME, protein assay
[9] = Efflux ratio of permeability from basolateral to apical side over apical to basolateral side in human Caco2 cells; type: ADME, cell-based; details: Caco-2

Sequence of Sodium channel protein type 5 subunit alpha (Q14524 whole entry): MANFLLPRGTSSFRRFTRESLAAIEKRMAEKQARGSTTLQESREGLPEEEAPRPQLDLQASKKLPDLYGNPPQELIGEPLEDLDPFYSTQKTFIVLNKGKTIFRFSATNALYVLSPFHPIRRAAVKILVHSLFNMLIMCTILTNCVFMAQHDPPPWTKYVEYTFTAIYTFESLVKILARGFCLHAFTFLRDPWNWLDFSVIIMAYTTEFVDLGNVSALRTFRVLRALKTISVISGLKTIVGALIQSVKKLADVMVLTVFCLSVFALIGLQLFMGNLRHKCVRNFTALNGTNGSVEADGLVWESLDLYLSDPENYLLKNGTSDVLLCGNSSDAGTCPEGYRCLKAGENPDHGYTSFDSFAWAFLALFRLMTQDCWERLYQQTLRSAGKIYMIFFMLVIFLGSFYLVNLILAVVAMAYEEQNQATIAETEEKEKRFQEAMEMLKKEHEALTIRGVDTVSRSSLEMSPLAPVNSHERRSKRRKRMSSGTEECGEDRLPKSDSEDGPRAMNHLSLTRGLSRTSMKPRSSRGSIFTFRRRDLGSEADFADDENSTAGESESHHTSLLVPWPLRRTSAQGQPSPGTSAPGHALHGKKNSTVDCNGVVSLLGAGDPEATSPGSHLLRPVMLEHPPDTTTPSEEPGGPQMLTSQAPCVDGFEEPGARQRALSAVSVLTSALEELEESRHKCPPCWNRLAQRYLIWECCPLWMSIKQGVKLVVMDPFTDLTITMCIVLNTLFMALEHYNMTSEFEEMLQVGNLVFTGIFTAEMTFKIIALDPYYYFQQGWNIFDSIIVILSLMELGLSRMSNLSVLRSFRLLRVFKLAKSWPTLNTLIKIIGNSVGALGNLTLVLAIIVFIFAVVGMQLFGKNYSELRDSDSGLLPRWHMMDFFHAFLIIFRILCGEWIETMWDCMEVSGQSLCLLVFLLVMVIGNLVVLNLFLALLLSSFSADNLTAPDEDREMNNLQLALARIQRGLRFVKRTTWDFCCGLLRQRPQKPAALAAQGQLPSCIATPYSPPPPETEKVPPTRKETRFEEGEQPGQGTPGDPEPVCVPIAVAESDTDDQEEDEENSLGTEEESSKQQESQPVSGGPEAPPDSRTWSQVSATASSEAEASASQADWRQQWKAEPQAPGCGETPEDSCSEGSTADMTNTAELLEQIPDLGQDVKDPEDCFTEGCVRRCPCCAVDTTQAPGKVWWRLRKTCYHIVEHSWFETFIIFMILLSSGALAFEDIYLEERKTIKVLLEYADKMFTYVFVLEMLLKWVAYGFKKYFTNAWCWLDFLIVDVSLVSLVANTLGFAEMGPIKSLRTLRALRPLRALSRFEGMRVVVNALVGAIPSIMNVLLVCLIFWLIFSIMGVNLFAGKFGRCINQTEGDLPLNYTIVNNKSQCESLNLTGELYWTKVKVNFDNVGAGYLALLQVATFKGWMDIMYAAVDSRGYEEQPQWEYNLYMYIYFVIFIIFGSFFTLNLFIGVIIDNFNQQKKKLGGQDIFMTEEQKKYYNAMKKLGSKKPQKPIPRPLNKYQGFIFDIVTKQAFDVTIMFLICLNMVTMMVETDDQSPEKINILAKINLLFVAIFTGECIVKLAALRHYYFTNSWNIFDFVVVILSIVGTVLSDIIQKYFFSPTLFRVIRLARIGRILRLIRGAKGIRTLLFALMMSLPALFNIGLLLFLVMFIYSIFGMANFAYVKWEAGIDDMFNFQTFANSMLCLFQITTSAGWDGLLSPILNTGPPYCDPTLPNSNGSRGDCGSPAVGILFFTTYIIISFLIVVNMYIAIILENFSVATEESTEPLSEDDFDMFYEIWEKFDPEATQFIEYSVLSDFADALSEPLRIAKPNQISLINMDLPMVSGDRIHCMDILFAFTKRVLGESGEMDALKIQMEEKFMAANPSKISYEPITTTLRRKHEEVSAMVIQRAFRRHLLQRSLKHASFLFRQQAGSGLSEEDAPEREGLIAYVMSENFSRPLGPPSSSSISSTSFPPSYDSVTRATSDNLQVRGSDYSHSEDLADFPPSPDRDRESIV

## Cn1cc(C2=CCOCC2)c2ccc(C(=O)NS(=O)(=O)C3CC3)cc21
[1]
  IC50: > 30000 nM
[2]
  IC50: 20000 nM

## Cn1c(-c2ccoc2)c(C2CCCCC2)c2ccc(C(=O)NS(=O)(=O)C3CC3)cc21
[2]
  IC50: 440 nM

## CN1CCC(c2cn(C)c3cc(C(=O)NS(=O)(=O)C4CC4)ccc23)CC1
[1]
  IC50: > 30000 nM
[2]
  IC50: > 30000 nM

## Cn1cc(C2CCCN(C(=O)OC(C)(C)C)C2)c2ccc(C(=O)NS(=O)(=O)C3CC3)cc21 (stereo not drawn)
[1]
  IC50: > 30000 nM
[2]
  IC50: 388 nM

## C[C@H]1CC[C@@H](c2cn(C)c3cc(C(=O)NS(=O)(=O)C4CC4)ccc23)C1
[1]
  IC50: 5400 nM
[2]
  IC50: 62 nM

## Cn1cc(C2CCC2)c2ccc(C(=O)NS(=O)(=O)C3CC3)cc21
[1]
  IC50: 6700 nM
[2]
  IC50: 360 nM

## Cn1cc(C2CCC(C(C)(C)C)CC2)c2ccc(C(=O)NS(=O)(=O)C3CC3)cc21 (stereo not drawn)
[2]
  IC50: 45 nM

## Cn1cc(C2CCCCC2)c2ccc(C(=O)NS(=O)(=O)C3CC3)cc21
Homo sapiens
  Ratio IC50: 57
[3]
  IC50: 55 nM
[1]
  IC50: 2400 nM
[2]
  IC50: 42 nM

## O=C(NS(=O)(=O)C1CC1)c1ccc2c(C3CCCCC3)c3n(c2c1)CCCCC3=O
[2]
  IC50: 1500 nM

## COc1ncc(-c2c(C3CCCCC3)c3ccc(C(=O)NS(=O)(=O)C4CC4)cc3n2C)cc1C#N
[3]
  IC50: 85 nM

## Cc1nn(-c2cnc(OCC3(C)CC3)c(Cl)c2)c2ccc(C(=O)NS(C)(=O)=O)cc12
[3]
  IC50: 8 nM

## Cn1cc(C2C3CC4CC(C3)CC2C4)c2ccc(C(=O)NS(=O)(=O)C3CC3)cc21 (stereo not drawn)
[1]
  IC50: 8400 nM
[2]
  IC50: 79 nM

## Cn1cc(C2=CCNCC2)c2ccc(C(=O)NS(=O)(=O)C3CC3)cc21
[1]
  IC50: > 30000 nM
[2]
  IC50: > 30000 nM

## Cn1cc(C2CCCCCC2)c2ccc(C(=O)NS(=O)(=O)C3CC3)cc21
[2]
  IC50: 116 nM

## Cn1c(-c2ccc(C#N)nc2)c(C2CCCCC2)c2ccc(C(=O)NS(=O)(=O)C3CC3)cc21
[3]
  IC50: 366 nM
[4]
  Ratio IC50: 3
[2]
  IC50: 123 nM

## C[C@@H]1CC[C@@H](c2cn(C)c3cc(C(=O)NS(=O)(=O)C4CC4)ccc23)C1
[1]
  IC50: > 30000 nM
[2]
  IC50: 509 nM

## Cn1cc(C2C3CC4CC2CN(C4)C3)c2ccc(C(=O)NS(=O)(=O)C3CC3)cc21 (stereo not drawn)
[1]
  IC50: > 30000 nM
[2]
  IC50: > 30000 nM

## Cn1ccc2ccc(C(=O)NS(=O)(=O)C3CC3)cc21
[1]
  IC50: > 30000 nM
[2]
  IC50: > 30000 nM

## COc1ncc(-c2c(C3CCCCC3)c3ccc(C(=O)NS(=O)(=O)C4CC4)cc3n2C)cn1
[5]
  Ratio IC50: 4
[3]
  IC50: 46 nM
[2]
  IC50: 195 nM

## Cc1cn(C)c2cc(C(=O)NS(=O)(=O)C3CC3)ccc12
[1]
  IC50: > 30000 nM
[2]
  IC50: > 30000 nM

## Cn1c(-c2cnc(N3CCOCC3)nc2)c(C2CCCCC2)c2ccc(C(=O)NS(=O)(=O)C3CC3)cc21
[3]
  IC50: 30 nM

## Cn1cc(C2(C)CCCCO2)c2ccc(C(=O)NS(=O)(=O)C3CC3)cc21 (stereo not drawn)
[1]
  IC50: > 30000 nM
[2]
  IC50: > 30000 nM

## Cn1cc(C2CCCCC2)c2cc(F)c(C(=O)NS(=O)(=O)C3CC3)cc21
[6]
  Papp A→B: 12.9 ×10⁻⁶ cm/s
[7]
  Papp B→A: 16 ×10⁻⁶ cm/s
[3]
  IC50: 14 to 30 nM
[1]
  IC50: > 10000 nM
[2]
  IC50: 30 nM
[8]
  IC50: > 10000 nM
[9]
  efflux ratio: 1.2

## Cn1cc(C2CCCC(C)(C)C2)c2ccc(C(=O)NS(=O)(=O)C3CC3)cc21 (stereo not drawn)
[1]
  IC50: 4100 nM
[2]
  IC50: 48 nM

## Cn1c(-c2ccc(N3CCCC3)nc2)c(C2CCCCC2)c2ccc(C(=O)NS(=O)(=O)C3CC3)cc21
[3]
  IC50: 38 nM

## Cn1cc(C2=CCN(C(=O)OC(C)(C)C)CC2)c2ccc(C(=O)NS(=O)(=O)C3CC3)cc21
[1]
  IC50: > 30000 nM
[2]
  IC50: 635 nM

## Cc1cn(C2C=CCCC2)c2ccc(C(=O)NS(=O)(=O)C3CC3)cc12 (stereo not drawn)
[1]
  IC50: 460 nM
[2]
  IC50: 72 nM

## Cn1cc(C2CCCNC2)c2ccc(C(=O)NS(=O)(=O)C3CC3)cc21 (stereo not drawn)
[1]
  IC50: > 30000 nM
[2]
  IC50: > 30000 nM

## O=C(NS(=O)(=O)C1CC1)c1ccc2c(C3CCCCC3)c3n(c2c1)CCCCC3O (stereo not drawn)
[2]
  IC50: > 30000 nM

## Cn1cc(C(C)(C)C)c2ccc(C(=O)NS(=O)(=O)C3CC3)cc21
[1]
  IC50: > 30000 nM
[2]
  IC50: 1100 nM

## CCC(c1cn(C)c2cc(C(=O)NS(=O)(=O)C3CC3)ccc12)C(C)(C)C (stereo not drawn)
[1]
  IC50: > 30000 nM
[2]
  IC50: 1200 nM

## Cn1cc(C2CCNCC2)c2ccc(C(=O)NS(=O)(=O)C3CC3)cc21
[1]
  IC50: > 30000 nM
[2]
  IC50: > 30000 nM

## Cc1cn(C2CCCCC2)c2ccc(C(=O)NS(=O)(=O)C3CC3)cc12
[6]
  Papp A→B: 10.6 ×10⁻⁶ cm/s
[7]
  Papp B→A: 21.9 ×10⁻⁶ cm/s
[1]
  IC50: 13000 nM
[2]
  IC50: 37 nM
[8]
  IC50: > 10000 nM
[9]
  efflux ratio: 2.1

## Cn1cc(C2CCN(C(=O)OC(C)(C)C)CC2)c2ccc(C(=O)NS(=O)(=O)C3CC3)cc21
[3]
  IC50: 383 nM
[1]
  IC50: > 30000 nM
[2]
  IC50: 388 nM
